Our source for the relative viability values is the supplement of paper PMC10307832.

What all share (assay): relative viability (nuclei count vs DMSO), 5 days (fraction); higher = more cells survive
Compound in the assay “Carfilzomib + Dasatinib”: CC(C)C[C@H](NC(=O)[C@H](CCc1ccccc1)NC(=O)CN1CCOCC1)C(=O)N[C@@H](Cc1ccccc1)C(=O)N[C@@H](CC(C)C)C(=O)[C@@]1(C)CO1 [Carfilzomib] + Cc1nc(Nc2ncc(C(=O)Nc3c(C)cccc3Cl)s2)cc(N2CCN(CCO)CC2)n1 [Dasatinib] (partner 0.075 µM)
Summed up: (§1)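 Each reported value is a median over duplicate plates. It expresses relative viability: treated-well nuclei count divided by vehicle-well nuclei count. Lung cancer cell lines in 1536-well plates were dosed by pin tool a day after seeding, alone with one drug or with a fixed anchor-drug dose plus five library-drug doses (not always all listed) in √10 steps, and nuclei were counted after 5 days.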

Compound in the assay “Carfilzomib + AZD7762”: CC(C)C[C@H](NC(=O)[C@H](CCc1ccccc1)NC(=O)CN1CCOCC1)C(=O)N[C@@H](Cc1ccccc1)C(=O)N[C@@H](CC(C)C)C(=O)[C@@]1(C)CO1 [Carfilzomib] + NC(=O)Nc1cc(-c2cccc(F)c2)sc1C(=O)N[C@H]1CCCNC1 [AZD7762] (partner 0.2 µM)
The method, boiled down:
as §1

Compound in the assay “Crizotinib + Navitoclax”: C[C@@H](Oc1cc(-c2cnn(C3CCNCC3)c2)cnc1N)c1c(Cl)ccc(F)c1Cl [Crizotinib] + CC1(C)CCC(c2ccc(Cl)cc2)=C(CN2CCN(c3ccc(C(=O)NS(=O)(=O)c4ccc(N[C@H](CCN5CCOCC5)CSc5ccccc5)c(S(=O)(=O)C(F)(F)F)c4)cc3)CC2)C1 [Navitoclax] (partner 0.5 µM)
Summed up:
as §1

Compound in the assay “Crizotinib + Pictilisib”: C[C@@H](Oc1cc(-c2cnn(C3CCNCC3)c2)cnc1N)c1c(Cl)ccc(F)c1Cl [Crizotinib] + CS(=O)(=O)N1CCN(Cc2cc3nc(-c4cccc5[nH]ncc45)nc(N4CCOCC4)c3s2)CC1 [Pictilisib] (partner 1 µM)
Summed up:
as §1

For NCI-H2347, the relative viability with Carfilzomib + Dasatinib (first compound 0.001 µM) worked out at 0.335; with Carfilzomib + Dasatinib (first compound 0.01 µM) it was 0.338; with Carfilzomib + Dasatinib (first compound 0.03162 µM) it was 0.197; with Carfilzomib + Dasatinib (first compound 0.1 µM), 0.173; in the assay with Carfilzomib + AZD7762 (first compound 0.001 µM), 0.696; in the assay with Carfilzomib + AZD7762 (first compound 0.003162 µM), 0.814. The relative viability came to 0.642 with Carfilzomib + AZD7762 (first compound 0.01 µM); 0.229 in the assay with Carfilzomib + AZD7762 (first compound 0.03162 µM); 0.289 in the assay with Carfilzomib + AZD7762 (first compound 0.1 µM); 0.682 with Crizotinib + Navitoclax (first compound 0.01 µM); 0.734 with Crizotinib + Navitoclax (first compound 0.03162 µM); 0.849 with Crizotinib + Navitoclax (first compound 0.1 µM). Besides, the relative viability with Crizotinib + Navitoclax (first compound 0.3162 µM) turned out to be 0.799; in the assay with Crizotinib + Navitoclax (first compound 1 µM) it was 0.852; with Crizotinib + Pictilisib (first compound 0.01 µM), 0.624; with Crizotinib + Pictilisib (first compound 0.03162 µM) it was 0.69; with Crizotinib + Pictilisib (first compound 0.1 µM) it was 0.551; with Crizotinib + Pictilisib (first compound 0.3162 µM), 0.731. Further, in the assay with Crizotinib + Pictilisib (first compound 1 µM), the relative viability came out at 1.05.

For NCI-H2405, the relative viability in the assay with Carfilzomib + Dasatinib (first compound 0.003162 µM) is 0.218; in the assay with Carfilzomib + Dasatinib (first compound 0.01 µM), 0.203; with Carfilzomib + Dasatinib (first compound 0.03162 µM), 0.247; in the assay with Carfilzomib + Dasatinib (first compound 0.1 µM), 0.188; with Carfilzomib + AZD7762 (first compound 0.001 µM), 0.717; with Carfilzomib + AZD7762 (first compound 0.003162 µM), 0.783. Besides, the relative viability in the assay with Carfilzomib + AZD7762 (first compound 0.01 µM) was found to be 0.932; with Carfilzomib + AZD7762 (first compound 0.03162 µM), 0.689; with Carfilzomib + AZD7762 (first compound 0.1 µM), 0.262; in the assay with Crizotinib + Navitoclax (first compound 0.01 µM), 0.816; in the assay with Crizotinib + Navitoclax (first compound 0.03162 µM), 0.815; in the assay with Crizotinib + Navitoclax (first compound 0.1 µM), 0.79. Besides, the relative viability was 0.858 with Crizotinib + Navitoclax (first compound 0.3162 µM); 0.862 with Crizotinib + Navitoclax (first compound 1 µM); 0.457 with Crizotinib + Pictilisib (first compound 0.01 µM); 0.526 with Crizotinib + Pictilisib (first compound 0.03162 µM); 0.419 in the assay with Crizotinib + Pictilisib (first compound 0.1 µM); 0.37 in the assay with Crizotinib + Pictilisib (first compound 0.3162 µM). Besides, the relative viability with Crizotinib + Pictilisib (first compound 1 µM) stood at 0.356.

NCI-H3122: the relative viability with Carfilzomib + Dasatinib (first compound 0.001 µM) was 0.868; in the assay with Carfilzomib + Dasatinib (first compound 0.003162 µM), 0.925; with Carfilzomib + Dasatinib (first compound 0.01 µM), 0.909; with Carfilzomib + Dasatinib (first compound 0.03162 µM), 0.69; in the assay with Carfilzomib + Dasatinib (first compound 0.1 µM), 0.162; with Carfilzomib + AZD7762 (first compound 0.001 µM), 0.948. Further, the relative viability with Carfilzomib + AZD7762 (first compound 0.003162 µM) turned out to be 1.05; with Carfilzomib + AZD7762 (first compound 0.01 µM), 1; with Carfilzomib + AZD7762 (first compound 0.03162 µM) it was 0.895; in the assay with Carfilzomib + AZD7762 (first compound 0.1 µM) it was 0.588; in the assay with Crizotinib + Navitoclax (first compound 0.01 µM), 0.99; with Crizotinib + Navitoclax (first compound 0.03162 µM), 0.993. For the same cell line, the relative viability in the assay with Crizotinib + Navitoclax (first compound 0.1 µM) amounted to 1.04; with Crizotinib + Navitoclax (first compound 0.3162 µM), 1.02; with Crizotinib + Pictilisib (first compound 0.01 µM), 0.533; in the assay with Crizotinib + Pictilisib (first compound 0.03162 µM), 0.6; with Crizotinib + Pictilisib (first compound 0.1 µM), 0.609; in the assay with Crizotinib + Pictilisib (first compound 0.3162 µM), 0.434. The relative viability with Crizotinib + Pictilisib (first compound 1 µM) was determined as 0.27.

For the cell line PC-3 [JPC-3], the relative viability was determined as 0.914 with Carfilzomib + Dasatinib (first compound 0.001 µM); 0.972 with Carfilzomib + Dasatinib (first compound 0.003162 µM); 0.996 in the assay with Carfilzomib + Dasatinib (first compound 0.01 µM); 0.597 in the assay with Carfilzomib + Dasatinib (first compound 0.03162 µM); 0.428 with Carfilzomib + Dasatinib (first compound 0.1 µM); 0.882 in the assay with Carfilzomib + AZD7762 (first compound 0.001 µM). Moreover, the relative viability with Carfilzomib + AZD7762 (first compound 0.003162 µM) came to 0.762; with Carfilzomib + AZD7762 (first compound 0.01 µM) it was 0.993; with Carfilzomib + AZD7762 (first compound 0.03162 µM), 0.512; with Carfilzomib + AZD7762 (first compound 0.1 µM) it was 0.248; with Crizotinib + Navitoclax (first compound 0.01 µM) it was 0.809; with Crizotinib + Navitoclax (first compound 0.03162 µM), 0.807. Also, the relative viability with Crizotinib + Navitoclax (first compound 0.1 µM) was 0.815; in the assay with Crizotinib + Navitoclax (first compound 0.3162 µM), 0.684; in the assay with Crizotinib + Navitoclax (first compound 1 µM), 0.858; with Crizotinib + Pictilisib (first compound 0.01 µM), 0.687; in the assay with Crizotinib + Pictilisib (first compound 0.03162 µM), 0.804; in the assay with Crizotinib + Pictilisib (first compound 0.1 µM), 0.722. Also, the relative viability came out at 0.705 in the assay with Crizotinib + Pictilisib (first compound 0.3162 µM) and 0.709 in the assay with Crizotinib + Pictilisib (first compound 1 µM).

Regarding PC-14, the relative viability with Carfilzomib + Dasatinib (first compound 0.001 µM) was determined as 0.311; in the assay with Carfilzomib + Dasatinib (first compound 0.003162 µM) it was 0.305; with Carfilzomib + Dasatinib (first compound 0.01 µM), 0.241; with Carfilzomib + Dasatinib (first compound 0.03162 µM), 0.0289; with Carfilzomib + Dasatinib (first compound 0.1 µM), 0.0424; in the assay with Carfilzomib + AZD7762 (first compound 0.001 µM), 0.377. Further, the relative viability with Carfilzomib + AZD7762 (first compound 0.003162 µM) amounted to 0.368; in the assay with Carfilzomib + AZD7762 (first compound 0.01 µM), 0.392; with Carfilzomib + AZD7762 (first compound 0.03162 µM) it was 0.158; in the assay with Carfilzomib + AZD7762 (first compound 0.1 µM) it was 0.0776; in the assay with Crizotinib + Navitoclax (first compound 0.01 µM), 0.983; with Crizotinib + Navitoclax (first compound 0.03162 µM), 0.96. In addition, the relative viability was 0.991 with Crizotinib + Navitoclax (first compound 0.1 µM); 1.04 with Crizotinib + Navitoclax (first compound 0.3162 µM); 0.998 with Crizotinib + Navitoclax (first compound 1 µM); 0.772 in the assay with Crizotinib + Pictilisib (first compound 0.01 µM); 0.775 in the assay with Crizotinib + Pictilisib (first compound 0.03162 µM); 0.708 with Crizotinib + Pictilisib (first compound 0.1 µM). Also, the relative viability in the assay with Crizotinib + Pictilisib (first compound 0.3162 µM) was determined as 0.8.

As for RERF-LC-KJ, the relative viability turned out to be 0.792 with Carfilzomib + Dasatinib (first compound 0.001 µM); 0.82 with Carfilzomib + Dasatinib (first compound 0.003162 µM); 0.867 with Carfilzomib + Dasatinib (first compound 0.01 µM); 0.388 with Carfilzomib + Dasatinib (first compound 0.03162 µM); 0.184 in the assay with Carfilzomib + Dasatinib (first compound 0.1 µM); 0.827 with Carfilzomib + AZD7762 (first compound 0.001 µM). In addition, the relative viability came to 1.11 in the assay with Carfilzomib + AZD7762 (first compound 0.003162 µM); 1.24 in the assay with Carfilzomib + AZD7762 (first compound 0.01 µM); 0.927 with Carfilzomib + AZD7762 (first compound 0.03162 µM); 0.309 with Carfilzomib + AZD7762 (first compound 0.1 µM); 1.18 with Crizotinib + Navitoclax (first compound 0.01 µM); 0.767 with Crizotinib + Navitoclax (first compound 0.03162 µM). The relative viability in the assay with Crizotinib + Navitoclax (first compound 0.1 µM) worked out at 1.13; with Crizotinib + Navitoclax (first compound 0.3162 µM), 0.682; with Crizotinib + Navitoclax (first compound 1 µM), 1.02; in the assay with Crizotinib + Pictilisib (first compound 0.01 µM), 0.502; in the assay with Crizotinib + Pictilisib (first compound 0.03162 µM) it was 0.628; in the assay with Crizotinib + Pictilisib (first compound 0.1 µM) it was 0.476. Further, the relative viability in the assay with Crizotinib + Pictilisib (first compound 0.3162 µM) stood at 0.561; in the assay with Crizotinib + Pictilisib (first compound 1 µM), 0.621.
